Measured values reported in patent US11866433B2, “Diarylthiohydantoin compound as androgen receptor antagonist” (CHIA TAI TIANQING PHARMACEUTICAL GROUP CO., LTD., priority 2017, dated 2024).

target: T1, androgen receptor (AR) (Homo sapiens, UniProt P10275); test: Antagonism of compounds on nuclear translocation of androgen receptor (PathHunter NHR cell lines); type: cell-based; settings: antagonist mode, agonist 6a-Fluorotestosterone 0.06 μM (EC80)
T1 sequence (P10275 1-920): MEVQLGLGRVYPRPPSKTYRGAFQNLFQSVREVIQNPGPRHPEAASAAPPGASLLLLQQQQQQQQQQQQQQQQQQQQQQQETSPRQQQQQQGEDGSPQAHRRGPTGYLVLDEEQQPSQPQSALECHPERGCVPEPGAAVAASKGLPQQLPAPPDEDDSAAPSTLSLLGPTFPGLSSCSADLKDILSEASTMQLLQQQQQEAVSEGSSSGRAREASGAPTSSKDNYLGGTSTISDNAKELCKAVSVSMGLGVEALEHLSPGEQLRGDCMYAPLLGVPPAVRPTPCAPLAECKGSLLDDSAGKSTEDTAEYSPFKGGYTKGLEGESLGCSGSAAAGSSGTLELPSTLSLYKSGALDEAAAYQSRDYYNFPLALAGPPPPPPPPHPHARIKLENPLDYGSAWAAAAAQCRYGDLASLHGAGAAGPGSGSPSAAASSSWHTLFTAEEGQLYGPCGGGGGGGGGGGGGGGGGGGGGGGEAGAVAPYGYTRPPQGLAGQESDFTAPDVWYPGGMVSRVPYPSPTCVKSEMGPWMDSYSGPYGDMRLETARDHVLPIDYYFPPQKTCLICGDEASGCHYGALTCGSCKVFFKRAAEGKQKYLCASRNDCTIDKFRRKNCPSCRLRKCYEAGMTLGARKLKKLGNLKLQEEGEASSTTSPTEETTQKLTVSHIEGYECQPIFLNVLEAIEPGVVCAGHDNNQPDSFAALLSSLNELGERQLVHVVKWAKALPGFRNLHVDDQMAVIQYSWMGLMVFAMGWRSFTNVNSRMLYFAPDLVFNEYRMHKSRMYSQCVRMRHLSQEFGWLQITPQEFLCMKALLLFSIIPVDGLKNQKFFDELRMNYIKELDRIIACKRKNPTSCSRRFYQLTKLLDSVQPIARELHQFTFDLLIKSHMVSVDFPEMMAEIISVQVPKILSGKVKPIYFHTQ
Method: Example 75 Test of Antagonism of Compounds on Nuclear Translocation of Androgen Receptor (AR)
1. PathHunter NHR cell lines were recovered and cultured for amplification.
2. The cells were inoculated onto a 384-well plate prior to testing, and incubated at 37° C. The serum for culture was filtered with charcoal-dextran to reduce the hormone level therein.
3. In the detection of the antagonistic function, a compound was added to the cells and incubated for 60 min. The working concentration of the test compound was diluted from 10 μM at a 3-fold concentration gradient, respectively including: […]. Then, an agonist 6a-Fluorotestosterone 0.06 μM (concentration: EC80, i.e., 80% agonistic compound concentration) was added, and the mixture was incubated at 37° C. or at room temperature for 3-16 h.
4. Signal detection: 12.5 μL or 15 μL (50%, v/v) PathHunter detection mixed solution (kit: DiscoverX product catalog number: 93-0001 series) was added, and incubated at room temperature for 1 h. The chemiluminescent signal was read with a PerkinElmer Envision™ instrument.
5. Data analysis: The compound activity was analyzed with CBIS data analysis software (ChemInnovation, CA). The calculation formula of the inhibition percent of the antagonist is as follows: IC50 inhibition ratio (%)=[…]×(1−(average RLU value of the test compound−average RLU value of the blank control group)/(average RLU value of EC80 control group−average RLU value of the blank control group)).

Row | SMILES | IC50 [µM]
1 | CNc1ncnc2cc(N3C(=S)N(c4ccc(C#N)c(C(F)(F)F)c4)C(=O)C3(C)C)ccc12 [Compound 1] | > 10
2 | CNC(=O)c1ccc(-n2c(=S)n(-c3ccc(C#N)c(C(F)(F)F)c3)c3ncccc32)cc1F [Compound 2] | > 10
3 | CNC(=O)c1ccc(-n2c(=S)n(-c3ccc(C#N)c(C(F)(F)F)c3)c3nccc(C)c32)cc1F [Compound 3] | 1.4
4 | CCN1CCOc2cc(N3C(=O)N(c4ccc(C#N)c(C(F)(F)F)c4)C(=O)C3(C)C)ccc2C1=O [Compound 4] | 2.19
5 | CC1(C)C(=O)N(c2ccc(C#N)c(C(F)(F)F)c2)C(=S)N1c1ccc2c(=O)n(CC(F)(F)F)cnc2c1 [Compound 5] | 3.65
6 | CC1(C)C(=O)N(c2ccc(C#N)c(C(F)(F)F)c2)C(=S)N1c1ccc2c(=O)n(CC(F)(F)F)ncc2c1 [Compound 6] | 3.07
7 | CC1(C)C(=O)N(c2ccc(C#N)c(C(F)(F)F)c2)C(=S)N1c1ccc2c(cnn2C2COCC2O)c1 (stereo not drawn) [Compound 7] | 4.26
8 | CC1(C)C(=O)N(c2ccc(C#N)c(C(F)(F)F)c2)C(=S)N1c1ccc2nn(C3COCC3O)cc2c1 (stereo not drawn) [Compound 8] | 4.27
9 | Cc1nc(OCCO)c2cc(N3C(=S)N(c4ccc(C#N)c(C(F)(F)F)c4)C(=O)C3(C)C)ccc2n1 [Compound 9] | 5.35
10 | CC1(C)C(=O)N(c2ccc(C#N)c(C(F)(F)F)c2)C(=S)N1c1ccc2nc(C3CC3)nc(OCCO)c2c1 [Compound 11] | 1.14
11 | CC1(C)C(=O)N(c2ccc(C#N)c(C(F)(F)F)c2)C(=S)N1c1ccc2ncnc(OCCO)c2c1 [Compound 12] | 3.26
12 | CC1(C)C(=O)N(c2ccc(C#N)c(C(F)(F)F)c2)C(=S)N1c1cc(F)c2ncnc(OCCO)c2c1 [Compound 13] | 6.02
13 | CC1(C)C(=O)N(c2ccc(C#N)c(C(F)(F)F)c2)C(=S)N1c1ccc2nc(OCCO)ncc2c1 [Compound 14] | 4.9
14 | CC1(C)C(=O)N(c2ccc(C#N)c(C(F)(F)F)c2)C(=S)N1c1ccc2nc(C(F)F)nc(OCCO)c2c1 [Compound 15] | 1.12
15 | CNc1nc(OCCO)c2cc(N3C(=S)N(c4ccc(C#N)c(C(F)(F)F)c4)C(=O)C3(C)C)ccc2n1 [Compound 16] | 3.91
16 | CCc1nc(OCCO)c2cc(N3C(=S)N(c4ccc(C#N)c(C(F)(F)F)c4)C(=O)C34CCC4)ccc2n1 [Compound 17] | 0.65
17 | CC1(C)C(=O)N(c2ccc(C#N)c(C(F)(F)F)c2)C(=S)N1c1cc(F)c2nc(C3CC3)nc(OCCO)c2c1 [Compound 18] | 2.84
18 | CCc1nc(OC2CCOCC2)c2cc(N3C(=S)N(c4ccc(C#N)c(C(F)(F)F)c4)C(=O)C3(C)C)cc(F)c2n1 [Compound 19] | 1.86
19 | CCc1nc(OCCO)c2cc(N3C(=S)N(c4ccc(C#N)c(C(F)(F)F)c4)C(=O)C34CCC4)cc(F)c2n1 [Compound 20] | 1.56
20 | CC1(C)C(=O)N(c2ccc(C#N)c(C(F)(F)F)c2)C(=S)N1c1cc(F)c2nc(C(F)F)nc(OCCO)c2c1 [Compound 21] | 1.89
21 | CCc1nc(OCCCS(C)(=O)=O)c2cc(N3C(=S)N(c4ccc(C#N)c(C(F)(F)F)c4)C(=O)C3(C)C)cc(F)c2n1 [Compound 22] | 2.36
22 | CC1(C)C(=O)N(c2cnc(C#N)c(C(F)(F)F)c2)C(=S)N1c1cc(F)c2nc(C3CC3)nc(OCCO)c2c1 [Compound 23] | 1.15
23 | CCc1nc(OCCN(C)C)c2cc(N3C(=S)N(c4ccc(C#N)c(C(F)(F)F)c4)C(=O)C3(C)C)cc(F)c2n1 [Compound 24] | 3.1
24 | CCc1nc(OCCO)c2cc(N3C(=S)N(c4cnc(C#N)c(C(F)(F)F)c4)C(=O)C34CCC4)cc(F)c2n1 [Compound 25] | 1.22
25 | CC1(C)C(=O)N(c2cnc(C#N)c(C(F)(F)F)c2)C(=S)N1c1cc(F)c2nc(C(F)F)nc(OCCO)c2c1 [Compound 26] | 1.71
26 | CCc1nc(OCC(=O)NC)c2cc(N3C(=S)N(c4ccc(C#N)c(C(F)(F)F)c4)C(=O)C3(C)C)cc(F)c2n1 [Compound 28] | 8.88
27 | CCc1nc(OCC2COC2)c2cc(N3C(=S)N(c4ccc(C#N)c(C(F)(F)F)c4)C(=O)C3(C)C)cc(F)c2n1 [Compound 29] | 0.83
